Assay results from ChEMBL document CHEMBL6153048, “Synthesis and pharmacological evaluation of natural product diphyllin derivatives against head and neck squamous cell carcinoma” (Eur J Med Chem, 2025).
Values belong to the compound of their own block, whether it stands above or below them. The source made the active and inactive calls. No cut-off for these calls is given here.

Legend:
CAL-27 [1] = assay: Induction of apoptosis in human CAL-27 cells assessed as late apoptotic cells at 1 nM incubated for 72 hrs by Annexin V-FITC/propidium iodide staining based flow cytometry analysis (reference value: 1.82%); assay type: functional
CAL-27 [2] = assay: Effect on epithelial cell proliferation in human CAL-27 cells assessed as regulation of cell proliferation related gene expression at 1 nM incubated for 48 hrs by GO analysis; assay type: functional, cell-based
CAL-27 [3] = assay: Induction of apoptosis in human CAL-27 cells assessed as early apoptotic cells at 1 nM incubated for 72 hrs by Annexin V-FITC/propidium iodide staining based flow cytometry analysis (reference value: 7.74%); assay type: functional
[4] = Half life in ICR mouse at 3 mg/kg, po measured upto 24 hrs by LC-MS/MS analysis; assay type: ADME, organism-based; conditions: in vivo
CAL-27 [5] = assay: Effect on cell cycle in human CAL-27 cells assessed as regulation of gene expression at 1 nM incubated for 48 hrs by GSEA analysis; assay type: functional, cell-based
CAL-27 [6] = assay: Induction of cell cycle arrest in human CAL-27 cells assessed as accumulation of cells at G1 phase at 1 to 1000 nM incubated for 48 hrs by flow cytometry analysis (Rvb= 58.6%); assay type: functional; conditions: dose 1-1000 nM
CAL-27 [7] = assay: Induction of apoptosis in human CAL-27 cells assessed as viable cells at 10 nM incubated for 72 hrs by Annexin V-FITC/propidium iodide staining based flow cytometry analysis (reference value: 90.41%); assay type: functional; conditions: read-out: Activity
CAL-27 [8] = assay: Induction of apoptosis in human CAL-27 cells assessed as early apoptotic cells at 1000 nM incubated for 72 hrs by Annexin V-FITC/propidium iodide staining based flow cytometry analysis (reference value: 9.16%); assay type: functional
CAL-27 [9] = assay: Induction of apoptosis in human CAL-27 cells assessed as early apoptotic cells at 10 nM incubated for 72 hrs by Annexin V-FITC/propidium iodide staining based flow cytometry analysis (reference value: 9.16%); assay type: functional
CAL-27 [10] = assay: Induction of apoptosis in human CAL-27 cells assessed as early apoptotic cells at 1 nM incubated for 72 hrs by Annexin V-FITC/propidium iodide staining based flow cytometry analysis (reference value: 9.16%); assay type: functional

half-life [4]: 31 min
SMILES: COc1cc2c(O[C@@H]3O[C@@H]4CO[C@@H](c5ccsc5)O[C@H]4[C@H](O)[C@H]3O)c3c(c(-c4ccc5c(c4)OCO5)c2cc1OC)C(=O)OC3
Activity (CAL-27 [1]): 2.19% | Activity (CAL-27 [2]): Active | Activity (CAL-27 [3]): 4.74% | Activity (CAL-27 [5]): Active | Activity (CAL-27 [6]): 78.7% | viability at 0.01 µM (CAL-27 [7]): 55%

SMILES: COc1cc2c(O)c3c(c(-c4ccc5c(c4)OCO5)c2cc1OC)C(=O)OC3 [DIPHYLLIN]
Activity (CAL-27 [8]): 12.06% | Activity (CAL-27 [9]): 3.78% | Activity (CAL-27 [10]): 2.68%
